# Assay results: US10278931B2, “Composition for treatment of inflammatory bowel disease and atopic dermatitis” (INNOPHARMASCREEN INC., priority 2015, dated 2019)
# Assays:
# [1] = tested on: IL-6, IL-22, IL-33 cytokine proteins; assay: Cytokine & chemokine antibody microarray protein chip of DNCB skin tissue; type: in vivo, balb/c mice; settings: 1% DNCB and 1 μM vs DNCB only; within threshold 1±0.1
# Text: A. Preparation of tissue samples: The mouse skin tissue was frozen in liquid nitrogen and then finely ground in a mortar. Liquid nitrogen was intermittently added to prevent the tissue from being thawed. The finely ground skin tissue was placed in lysis M buffer to prepare a tissue sample lysate.
# B. Fluorescent labeling of tissue lysates: Proteins were extracted from each of the tissue lysate treated with the sample for a certain period of time and an untreated tissue lysate (Lysis M extraction solution, Roche) and labeled with a fluorescent material (Cy3 or Cy5) (GE Healthcare). First, the amount of protein from each tissue lysate was adjusted to be at least 1 mg, and then coupling buffer (0.1M sodium carbonate buffer, pH 9.3) was added and mixed well. Cy3 and Cy5 dyes were added to each tissue lysate to which the coupling buffer had been added and mixed well for labeling at 4° C. for 16 hours. A control treated only with DNCB was labeled with Cy3 and Cy5, and the experimental groups treated with the sample were also labeled with Cy3 and Cy5. After labeling with the fluorescent dyes, free dyes were removed using a Post-reactive Spin column (Sigma).
# C. Fabrication of antibody microarrays: ProteoChip™ (Proteogen, Inc., Seoul, Korea) was used as a protein chip, and antibody microarrays were fabricated by spotting antibodies against 26 proteins in cells on a substrate immobilized with 200 μg/ml of protein A on the ProteoChip™. First, the antibodies were diluted to 100 μg/ml with phosphate buffer containing 30% glycerol and the antibody arrays were fixed overnight at 4° C. […]
# D. Hybridization of antibody arrays: Tissue lysates labeled with fluorescent materials were quantified (Bradford method), and 30 μg of each fluorescently labeled samples were mixed in 10 ml of a reaction solution. […] Each slide was analyzed using a fluorescent microarray scanner. […] The ratio of Cy5 to Cy3 in each spot was calculated using a software (Genepix 6.0). The INR values were calculated by sample-Cy5/control-Cy3×sample-Cy3/control-Cy5. […]
# [2] = tested on: DSS-induced animal model; assay: DSS-induced inflammatory bowel disease (enteritis) model; type: in vivo, C57BL/6 mice
# Protocol: Six-week-old female SPF (Specific pathogen-free) C57BL/6 mice were purchased from DuPont Biotech. The mice were allowed to freely ingest a feed and water after an acclimation period of 1 week in an animal room of Hoseo University Safety Evaluation Center maintained at temperature of 21±3° C., humidity of 50±20%, and light/darkness cycle of 12 h/12 h. All procedures in the present animal experiment were conducted after approved by the Animal Experimental Ethics Committee of Hoseo University (HTRC-15-19, and HTRC-16-22(2)).
# Dextran sodium sulfate (cat no 160110 by Mpbio. corn) as a colitis inducer was diluted to 3% concentration in drinking water and orally administered to mice to induce enteritis. The mice were divided into 6 groups and DW was administered to the animals of a control, and 1.0 mg/kg and 10 mg/kg of the test material were orally administered to the animals of the experimental groups once a day for […]. Sulfasalazine (100 mg/kg) dissolved in crude olive oil was orally administered once a day to the animals of a positive control. In acute cases, disease progression levels were examined after 5 days of administration. In chronic cases, disease progression levels were examined 15 days and 30 days after the 5 days of administration (reference: Toxicology Reports 2 (2015) 10391045-Caryophyllene attenuates dextran sulfate sodium-induced colitis in mice via modulation of gene expression associated mainly with colon inflammation).
# Body weights were measured once for 5 days or more during the test period. The measured weights were quantified as 0 point if there was no difference compared with the normal control, 1 point for weight loss rate of 15%, 2 points for 510%, 3 points for 1015%, and 4 points for >15%. Feces observation was performed to examine the incidence of diarrhea, and the results thereof were quantified as scores (0, normal stool; 1, mildly soft stool; 2, very soft stool; 3, very soft stool (no regular shape); 4, watery stool).
# Rectal tissues and blood were collected from 5 individuals for each of the autopsy times. Yuhan ketamine 50® (Yuhan Corporation, Korean) and Rompun (Bayer, USA) were mixed in a ratio of 3:1, and then used to anesthetize animals via muscular injection. Each anesthetized animal was subjected to laparotomy to collect blood from the abdominal artery, and after blood collection, the abdominal artery was cut and subjected to venesection and death to collect rectal tissue. The length and weight of the collected tissue were measured to calculate weight per 1 cm of the tissue. Some of the collected tissues were used in biopsy, and some thereof were frozen in liquid nitrogen and stored at −70° C. before analysis. […]
# [3] = tested on: TSLP secretion from human mast cells (HMC-1 cells); assay: TSLP secretion ELISA in PMACI-stimulated mast cells; type: cell-based
# Protocol: (1) Cell culture: A human mast cell line (HMC-1) was cultured in an IMDM supplemented with 10% FBS at 37° C. and 5% CO2. Candidate materials were dissolved in DMSO, and then filtered using a 0.22 μm filter. The resulting candidate materials were diluted with DMSO and the HMC-1 cells were treated therewith.
# (3) Enzyme-linked immunosorbent assay (ELISA): Mast cells (3×10^6 cells/ml) were stabilized for 1 hour, and then treated with 0.1 μM, 1 μM, and 10 μM of candidate materials, followed by treatment with PMACI for 8 hours. The mast cells were centrifuged to obtain supernatants. To measure the amount of TSLP secreted from the cells, ELISA was used. The ELISA was performed in 96-well plates coated with 1 μg/well of TSLP capture Ab. The coated plates were washed twice with PBS. The cells were treated with PBS containing 10% FBS for 2 hours. Thereafter, the cells were washed with PBS containing 0.05% Tween-20 (Sigma), and recombinant TSLP was used to draw a standard curve. Subsequently, the plates were exposed to a biotinylated-TSLP antibody, Avidin peroxidase, an ARTS substrate containing 30% H2O2, and then measured at 405 nm.
smiles,measurement,setting,value
Cl.N=C(N)NC(=N)Nc1ccc(Cl)cc1 [IPS-07001],"IL-6 protein expression (antibody chip, INR)",[1],decrease
same,"IL-22 protein expression (antibody chip, INR)",[1],decrease
same,"IL-33 protein expression (antibody chip, INR)",[1],decrease
same,"enteritis inhibitory activity (ratio of enteric weight to enteric length, wt/cm)","[2]; 10 mg/kg oral, compared to DSS control",superior enteritis inhibitory activity
same,melena,"[2]; compared to the DSS-induced group, oral",significantly decreased
same,TSLP production,"[3]; HMC-1 cells, concentration of 0.011 μM (so in the source), non-cytotoxic",significantly regulated
same,TSLP secretion from mast cells,"[3]; PMACI-stimulated HMC-1 cells, ELISA",significantly inhibited
